Laboratory results: ChEMBL document CHEMBL1201862, “PubChem BioAssay data set” (2004)
Activity calls are given as the source filed them.

Experiments:
[1] = target: Cytochrome P450 2D6 (Homo sapiens, UniProt P10635);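 also: CYP2D6 member of a cytochrome P450 panel assay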
[2] = target: T1, Serine/threonine-protein phosphatase (Candida dubliniensis (strain CD36 / CBS 7987 / NCPF 3949 / NRRLY-17841) (Yeast), UniProt B9W6M3); experiment: Fluorescence Cell-Based Secondary Assay to Identify Inhibitors of Calcineurin. [Related pubchem assays (depositor defined):AID1979, AID2007]; format: functional
T1 sequence (B9W6M3 whole entry): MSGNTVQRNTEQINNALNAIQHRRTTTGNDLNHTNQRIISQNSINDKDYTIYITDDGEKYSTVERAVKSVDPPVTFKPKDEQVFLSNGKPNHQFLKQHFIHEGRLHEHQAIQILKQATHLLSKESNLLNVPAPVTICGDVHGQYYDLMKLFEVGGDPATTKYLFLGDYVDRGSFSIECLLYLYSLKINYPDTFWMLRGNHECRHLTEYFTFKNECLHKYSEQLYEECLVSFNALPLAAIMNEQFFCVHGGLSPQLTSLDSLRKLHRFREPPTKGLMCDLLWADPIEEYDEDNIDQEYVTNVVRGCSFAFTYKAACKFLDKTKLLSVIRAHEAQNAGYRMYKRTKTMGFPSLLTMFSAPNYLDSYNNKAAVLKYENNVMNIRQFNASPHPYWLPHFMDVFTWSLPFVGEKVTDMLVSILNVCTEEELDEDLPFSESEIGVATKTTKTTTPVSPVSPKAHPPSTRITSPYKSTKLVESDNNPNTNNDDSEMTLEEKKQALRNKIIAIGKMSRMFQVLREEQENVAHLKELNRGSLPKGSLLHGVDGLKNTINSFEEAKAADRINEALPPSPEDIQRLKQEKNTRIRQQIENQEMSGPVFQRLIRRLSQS

[3] = target: T2, Dual specificity protein phosphatase 3 (Homo sapiens, UniProt P51452); experiment: VHR1 phosphatase inhibitors, biochemical (AID 1878)
[4] = target: T3, Voltage-gated N-type calcium channel alpha-1B subunit/Amyloid beta A4 precursor protein-binding family A member 1 (Homo sapiens, UniProt Q00975+Q02410); format: protein assay
[5] = target: T4, Dual specificity protein phosphatase 6 (Rattus norvegicus, UniProt Q64346); experiment: MKP-3 phosphatase inhibitors, primary screen, biochemical, rat enzyme, in vitro (AID 425)
T4 sequence (Q64346 whole entry): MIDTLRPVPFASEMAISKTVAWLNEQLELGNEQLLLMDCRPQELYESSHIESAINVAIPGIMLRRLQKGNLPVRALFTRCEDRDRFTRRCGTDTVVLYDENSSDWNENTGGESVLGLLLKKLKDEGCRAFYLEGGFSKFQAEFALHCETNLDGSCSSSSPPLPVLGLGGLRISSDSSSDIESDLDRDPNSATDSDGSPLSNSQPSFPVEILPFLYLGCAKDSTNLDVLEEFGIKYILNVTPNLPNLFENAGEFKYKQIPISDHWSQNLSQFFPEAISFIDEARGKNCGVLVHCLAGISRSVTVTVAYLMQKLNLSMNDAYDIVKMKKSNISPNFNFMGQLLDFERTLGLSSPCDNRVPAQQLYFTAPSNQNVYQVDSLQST

[6] = target: T3, Voltage-gated N-type calcium channel alpha-1B subunit/Amyloid beta A4 precursor protein-binding family A member 1; format: protein assay; remark: listed apart in the source
[7] = target: T2, Dual specificity protein phosphatase 3; experiment: VHR1 phosphatase inhibitors, primary screen, biochemical, absorbance, uHTS (AID 1654)
[8] = target: T5, Cytochrome P450 1A2 (Homo sapiens, UniProt P05177);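 also: PubChem cytochrome P450 panel assay, CYP1A2 panel member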
T5 sequence (P05177 whole entry): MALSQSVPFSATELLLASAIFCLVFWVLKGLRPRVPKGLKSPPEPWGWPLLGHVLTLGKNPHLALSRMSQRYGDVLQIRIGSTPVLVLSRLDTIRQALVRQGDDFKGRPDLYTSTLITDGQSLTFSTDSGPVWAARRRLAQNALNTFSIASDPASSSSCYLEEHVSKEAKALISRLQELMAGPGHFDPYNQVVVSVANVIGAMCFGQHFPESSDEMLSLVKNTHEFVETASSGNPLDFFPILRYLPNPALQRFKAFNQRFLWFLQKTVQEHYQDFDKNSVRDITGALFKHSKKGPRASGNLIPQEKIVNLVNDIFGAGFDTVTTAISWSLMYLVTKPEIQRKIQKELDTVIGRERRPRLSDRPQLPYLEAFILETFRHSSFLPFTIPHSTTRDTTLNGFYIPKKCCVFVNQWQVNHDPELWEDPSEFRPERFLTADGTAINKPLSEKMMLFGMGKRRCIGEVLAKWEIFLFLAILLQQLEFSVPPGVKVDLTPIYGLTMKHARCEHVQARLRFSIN

[9] = target: Cytochrome P450 2C9 (Homo sapiens, UniProt P11712)
[10] = target: Beta-galactosidase (Escherichia coli, UniProt Q8VNN2); format: functional
[11] = cytotoxicity toward NIH3T3 fibroblasts, dose response, counter-screen, cell-based, ATP luminescence, mouse fibroblasts (AID 2010); format: functional;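 also: cells exposed to compound for about 90 hours before reading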
[12] = tested on: Vero; experiment: cells; format: functional; details: Chlorocebus sabaeus
[13] = tested on: Vero; experiment: cells; format: functional, cell-based; details: Chlorocebus sabaeus
[14] = target: T6, Kappa-type opioid receptor (Homo sapiens, UniProt P41145); format: functional
[15] = target: T6, Kappa-type opioid receptor; format: functional; remark: listed apart in the source
[16] = inhibitors of intracellular T. cruzi replication, confirmation, NIH3T3 host cells, beta-gal luminescence (AID 2044); format: functional, cell-based;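 also: intracellular parasites grown in NIH/3T3 mouse fibroblasts as host cells; luminescent beta-galactosidase reporter signal from transgenic T. cruzi replicating inside host cells; inhibitors lower the luminescence signal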
[17] = target: T7, Delta-type opioid receptor (Homo sapiens, UniProt P41143); experiment: HTS Image-Based Screen for Antagonists of the DOR Receptor. [Related pubchem assays (depositor defined):AID1777, AID1785, AID1786, AID2133]; format: functional
[18] = tested on: H9c2; experiment: cells; format: functional, cell-based; details: Rattus norvegicus, H9c2, Myocardium;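 also: confirmatory concentration-response retest of ultra-high-throughput screening hits for modulation of myocardial damage; cell death induced by hydrogen peroxide oxidative stress; compound pretreatment for 60 min then peroxide exposure for 2 h; potency is for protecting the cells against peroxide damage rather than for killing them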
[19] = target: Mu-type opioid receptor (Homo sapiens, UniProt P35372); experiment: HTS Image-Based Screen for Agonists of the MOR Receptor. [Related pubchem assays (depositor defined):AID1777, AID1785, AID1786, AID2133]; format: functional;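 also: imaging of beta-arrestin GFP recruitment into spots after receptor activation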
[20] = tested on: Streptococcus; experiment: Group A Streptococcus viability loss, dose response, counter-screen for streptokinase expression inhibitor project, luminescence, BacTiterGlo (AID 1915); format: functional, organism-based;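 also: potency for reduction of bacterial viability or growth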
[21] = tested on: Streptococcus sp. 'group A'; experiment: growth inhibition of control SK(-) GAS strain, dose response, counter-screen for streptokinase expression inhibitor project, luminescence, kanamycin, BacTiterGlo, confirmation (AID 1900); format: functional, organism-based
[22] = target: T7, Delta-type opioid receptor; experiment: HTS Image-Based Screen for Agonists of the DOR Receptor. [Related pubchem assays (depositor defined):AID1777, AID1786, AID2133]; format: functional

T6 sequence (P41145 whole entry): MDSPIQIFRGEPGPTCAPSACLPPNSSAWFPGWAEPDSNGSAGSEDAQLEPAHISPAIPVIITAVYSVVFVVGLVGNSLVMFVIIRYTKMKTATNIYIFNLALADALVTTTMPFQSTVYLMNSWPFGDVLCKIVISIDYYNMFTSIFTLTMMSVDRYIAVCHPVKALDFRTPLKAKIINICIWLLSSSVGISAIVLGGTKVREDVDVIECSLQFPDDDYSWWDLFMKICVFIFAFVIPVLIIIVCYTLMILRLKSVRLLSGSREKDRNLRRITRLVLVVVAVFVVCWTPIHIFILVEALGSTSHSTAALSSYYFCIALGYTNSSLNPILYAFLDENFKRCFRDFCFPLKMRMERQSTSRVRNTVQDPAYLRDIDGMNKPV
T7 sequence (P41143 whole entry): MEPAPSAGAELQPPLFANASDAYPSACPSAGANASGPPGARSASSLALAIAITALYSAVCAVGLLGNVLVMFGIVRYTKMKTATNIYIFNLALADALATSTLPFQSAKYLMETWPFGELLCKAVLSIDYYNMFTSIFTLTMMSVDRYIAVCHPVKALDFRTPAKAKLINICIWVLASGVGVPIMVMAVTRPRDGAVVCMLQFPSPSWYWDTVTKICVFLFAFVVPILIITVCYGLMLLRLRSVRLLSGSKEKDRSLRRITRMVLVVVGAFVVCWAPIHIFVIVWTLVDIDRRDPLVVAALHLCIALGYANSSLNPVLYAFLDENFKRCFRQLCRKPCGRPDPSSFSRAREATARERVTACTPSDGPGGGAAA
T3 sequence (Q00975 whole entry): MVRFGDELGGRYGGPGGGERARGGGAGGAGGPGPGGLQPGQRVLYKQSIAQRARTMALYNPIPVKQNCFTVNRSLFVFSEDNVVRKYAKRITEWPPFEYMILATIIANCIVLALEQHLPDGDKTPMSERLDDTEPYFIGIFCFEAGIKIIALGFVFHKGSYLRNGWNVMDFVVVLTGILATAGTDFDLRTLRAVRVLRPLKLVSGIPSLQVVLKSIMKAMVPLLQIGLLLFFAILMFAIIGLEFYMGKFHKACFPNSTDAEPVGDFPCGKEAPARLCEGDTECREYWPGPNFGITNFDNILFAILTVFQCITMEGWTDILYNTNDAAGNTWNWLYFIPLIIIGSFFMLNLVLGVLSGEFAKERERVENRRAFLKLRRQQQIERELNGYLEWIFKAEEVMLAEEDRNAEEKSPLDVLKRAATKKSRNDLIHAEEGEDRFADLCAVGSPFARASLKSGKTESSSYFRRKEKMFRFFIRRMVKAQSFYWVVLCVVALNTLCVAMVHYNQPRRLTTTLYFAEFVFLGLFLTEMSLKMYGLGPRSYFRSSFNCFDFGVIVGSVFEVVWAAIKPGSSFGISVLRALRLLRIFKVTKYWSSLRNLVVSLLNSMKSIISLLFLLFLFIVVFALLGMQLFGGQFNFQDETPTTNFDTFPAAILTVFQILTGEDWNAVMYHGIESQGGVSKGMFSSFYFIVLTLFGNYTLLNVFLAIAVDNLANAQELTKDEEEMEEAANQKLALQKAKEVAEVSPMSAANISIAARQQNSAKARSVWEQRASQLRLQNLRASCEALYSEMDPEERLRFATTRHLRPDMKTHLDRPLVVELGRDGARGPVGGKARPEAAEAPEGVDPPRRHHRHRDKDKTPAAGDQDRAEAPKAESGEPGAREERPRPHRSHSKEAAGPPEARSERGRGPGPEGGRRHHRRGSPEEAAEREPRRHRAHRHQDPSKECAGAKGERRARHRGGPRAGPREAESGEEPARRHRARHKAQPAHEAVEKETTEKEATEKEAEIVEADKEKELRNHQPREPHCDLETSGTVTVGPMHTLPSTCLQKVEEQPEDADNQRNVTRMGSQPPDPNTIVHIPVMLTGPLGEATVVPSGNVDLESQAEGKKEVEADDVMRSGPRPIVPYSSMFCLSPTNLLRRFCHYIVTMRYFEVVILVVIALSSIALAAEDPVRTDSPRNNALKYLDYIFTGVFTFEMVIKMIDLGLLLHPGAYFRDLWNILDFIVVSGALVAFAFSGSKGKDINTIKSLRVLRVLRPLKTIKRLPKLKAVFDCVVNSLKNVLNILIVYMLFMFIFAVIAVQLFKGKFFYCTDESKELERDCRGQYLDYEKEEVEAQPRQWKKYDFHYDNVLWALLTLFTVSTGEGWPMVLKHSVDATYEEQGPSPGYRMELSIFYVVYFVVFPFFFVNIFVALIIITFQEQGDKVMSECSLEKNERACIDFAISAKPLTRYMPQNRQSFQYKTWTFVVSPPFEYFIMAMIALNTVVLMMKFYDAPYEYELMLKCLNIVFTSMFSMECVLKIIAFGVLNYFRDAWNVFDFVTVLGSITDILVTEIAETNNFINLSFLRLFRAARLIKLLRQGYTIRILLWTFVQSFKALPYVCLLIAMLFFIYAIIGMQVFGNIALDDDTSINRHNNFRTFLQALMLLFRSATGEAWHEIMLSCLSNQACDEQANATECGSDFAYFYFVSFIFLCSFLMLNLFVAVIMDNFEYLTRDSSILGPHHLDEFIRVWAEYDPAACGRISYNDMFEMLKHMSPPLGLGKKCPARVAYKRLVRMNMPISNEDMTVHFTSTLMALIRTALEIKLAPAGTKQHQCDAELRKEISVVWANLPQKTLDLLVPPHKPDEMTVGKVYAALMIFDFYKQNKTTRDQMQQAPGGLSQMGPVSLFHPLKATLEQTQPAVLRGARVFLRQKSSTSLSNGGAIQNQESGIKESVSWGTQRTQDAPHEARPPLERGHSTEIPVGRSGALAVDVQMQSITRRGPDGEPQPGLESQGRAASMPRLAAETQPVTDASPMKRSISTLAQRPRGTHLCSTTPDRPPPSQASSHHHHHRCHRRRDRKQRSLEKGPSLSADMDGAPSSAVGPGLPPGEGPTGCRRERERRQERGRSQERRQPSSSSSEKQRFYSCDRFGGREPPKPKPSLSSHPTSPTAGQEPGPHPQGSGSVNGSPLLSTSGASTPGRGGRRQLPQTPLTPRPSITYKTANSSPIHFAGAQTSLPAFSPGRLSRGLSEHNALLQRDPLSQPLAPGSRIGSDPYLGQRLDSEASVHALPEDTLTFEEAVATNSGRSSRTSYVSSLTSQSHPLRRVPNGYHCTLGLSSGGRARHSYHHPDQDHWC
T3 sequence (Q02410 whole entry): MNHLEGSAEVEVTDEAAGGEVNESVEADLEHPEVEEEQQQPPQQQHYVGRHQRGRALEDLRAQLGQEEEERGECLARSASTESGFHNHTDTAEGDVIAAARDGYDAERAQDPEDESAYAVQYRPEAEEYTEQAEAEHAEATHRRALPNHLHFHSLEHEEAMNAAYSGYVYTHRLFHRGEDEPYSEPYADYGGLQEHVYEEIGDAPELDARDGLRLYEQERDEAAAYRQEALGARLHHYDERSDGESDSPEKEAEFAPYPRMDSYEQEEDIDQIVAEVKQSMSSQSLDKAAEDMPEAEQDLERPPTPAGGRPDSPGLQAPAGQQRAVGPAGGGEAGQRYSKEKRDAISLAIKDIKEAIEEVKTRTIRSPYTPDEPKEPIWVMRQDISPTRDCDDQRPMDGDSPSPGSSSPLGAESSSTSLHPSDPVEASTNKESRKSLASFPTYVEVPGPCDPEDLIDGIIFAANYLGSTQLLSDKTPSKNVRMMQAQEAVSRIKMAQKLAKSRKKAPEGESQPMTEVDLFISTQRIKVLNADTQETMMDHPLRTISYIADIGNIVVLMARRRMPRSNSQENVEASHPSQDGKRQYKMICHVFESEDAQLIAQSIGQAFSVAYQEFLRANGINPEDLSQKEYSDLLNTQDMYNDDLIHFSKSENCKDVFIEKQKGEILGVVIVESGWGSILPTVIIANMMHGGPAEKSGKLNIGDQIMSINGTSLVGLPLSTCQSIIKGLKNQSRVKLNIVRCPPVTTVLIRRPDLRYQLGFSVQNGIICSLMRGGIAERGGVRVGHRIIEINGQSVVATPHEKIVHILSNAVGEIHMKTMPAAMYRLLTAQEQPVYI
T2 sequence (P51452 whole entry): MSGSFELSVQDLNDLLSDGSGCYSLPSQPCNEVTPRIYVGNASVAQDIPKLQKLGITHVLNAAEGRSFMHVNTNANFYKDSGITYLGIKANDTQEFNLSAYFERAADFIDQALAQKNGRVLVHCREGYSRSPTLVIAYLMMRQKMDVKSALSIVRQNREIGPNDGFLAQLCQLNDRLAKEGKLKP
Chain of Cytochrome P450 2D6 (P10635 whole entry): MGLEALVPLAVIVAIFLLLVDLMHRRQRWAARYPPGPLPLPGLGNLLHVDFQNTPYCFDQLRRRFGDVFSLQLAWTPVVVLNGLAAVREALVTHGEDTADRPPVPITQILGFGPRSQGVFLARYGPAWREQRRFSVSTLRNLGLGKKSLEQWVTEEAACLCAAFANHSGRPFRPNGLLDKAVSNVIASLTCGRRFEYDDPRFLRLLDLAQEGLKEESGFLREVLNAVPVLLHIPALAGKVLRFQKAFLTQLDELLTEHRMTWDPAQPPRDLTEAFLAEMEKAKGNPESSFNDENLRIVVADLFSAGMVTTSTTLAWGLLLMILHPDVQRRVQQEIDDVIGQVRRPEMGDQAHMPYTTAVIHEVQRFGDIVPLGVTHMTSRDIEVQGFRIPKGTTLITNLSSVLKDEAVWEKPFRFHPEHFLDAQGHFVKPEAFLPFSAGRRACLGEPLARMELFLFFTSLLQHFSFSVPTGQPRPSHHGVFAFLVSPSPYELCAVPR
Chain of Mu-type opioid receptor (P35372 whole entry): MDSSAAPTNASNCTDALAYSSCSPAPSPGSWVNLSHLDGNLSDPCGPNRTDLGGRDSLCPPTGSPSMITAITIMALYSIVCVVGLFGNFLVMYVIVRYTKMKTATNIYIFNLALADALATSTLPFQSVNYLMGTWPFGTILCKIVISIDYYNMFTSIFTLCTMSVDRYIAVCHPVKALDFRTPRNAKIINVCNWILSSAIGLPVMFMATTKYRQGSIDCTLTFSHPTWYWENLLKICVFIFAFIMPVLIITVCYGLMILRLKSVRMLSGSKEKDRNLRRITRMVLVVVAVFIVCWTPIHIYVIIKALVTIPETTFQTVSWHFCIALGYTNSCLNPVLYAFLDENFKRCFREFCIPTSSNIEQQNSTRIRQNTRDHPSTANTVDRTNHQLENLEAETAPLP

Question: With `O=C(c1ccccc1)c1nn(-c2ccccc2)c(=O)cc1C(F)(F)F` as the compound, how does the AC50 [1] read?
Answer: inconclusive

Question: Which EC50 [2] does the source give for `CCOC(=O)N1C(=O)C2(CCCCC2)N(c2ccc(C)cc2)C1=S` here?
Answer: > 285 µM (inactive)

Question: For `CCOC(=O)C1=C(C)N=c2s/c(=C/c3ccc(OCC(=O)O)cc3)c(=O)n2C1c1ccc(SC)cc1` (configuration not stated), which IC50 [3] is on record?
Answer: 6.94 µM (active)

Question: What about the IC50 [4] of the same compound?
Answer: 10.4 µM (active)

Question: What about the IC50 [5] of the same compound?
Answer: 72.6 µM (active)

Question: And the IC50 [6]?
Answer: > 50 µM (inactive)

Question: What about the IC50 [7] of the same compound?
Answer: 9.18 µM (active)

Question: Which AC50 [8] does the source give for `C=C[C@H]1C[N@@]2CC[C@H]1C[C@@H]2[C@@H](O)c1ccnc2ccc(OC)cc12` [QUINIDINE] here?
Answer: inactive

Question: And the AC50 [9]?
Answer: inactive

Question: For `CC(Oc1ccc(Br)cc1)C(=O)Nc1nc(-c2ccccn2)cs1` (configuration not stated), which EC50 [10] is on record?
Answer: > 31.5 µM (inactive)

Question: And the EC50 [11]?
Answer: 5.27 µM (active)

Question: What about the CC50 [12] of the same compound?
Answer: 9.95 µM (active)

Question: And the IC50 [13]?
Answer: > 25 µM (active)

Question: And the IC50 [14]?
Answer: > 32 µM

Question: And the IC50 [15]?
Answer: 5.42 µM (active)

Question: What about the EC50 [16] of the same compound?
Answer: 0.909 µM (active)

Question: What about the IC50 [17] of the same compound?
Answer: > 32 µM (inactive)

Question: And the IC50 [18]?
Answer: > 79 µM (inactive)

Question: What about the EC50 [19] of the same compound?
Answer: > 32 µM (inactive)

Question: What about the EC50 [20] of the same compound?
Answer: 2.24 µM (active)

Question: And the EC50 [21]?
Answer: 0.211 µM (active)

Question: What about the EC50 [22] of the same compound?
Answer: > 32 µM (inactive)
